Assay results from ChEMBL document CHEMBL1201862, “PubChem BioAssay data set” (2004).
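Cells were grown in 96-well plates and exposed to each compound for 48 hours at five concentrations; endpoints were interpolated linearly between bracketing concentrations, or set to the highest concentration if not reached. GI50 = concentration required for 50% inhibition of growth.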 Calls of active or inactive are those of the source. No stated cut-off is given here; in the data, active = GI50 up to about 1.1 µM and inactive = higher. Where a SMILES comes first, the peptide text is derived from it. The star is where a group is joined. Cbz = O=C(OCc1ccccc1)*

Experiments:
Experiment in all cases: inhibition of tumour cell growth, NCI panel, 48 h
SR = system: SR
786-0 = system: 786-0
SF-295 = system: SF-295
SNB-19 = system: SNB-19
Hs-578T = system: Hs-578T
NCI-H226 = system: NCI-H226
NCI-H522 = system: NCI-H522
A549 = system: A549
LOX IMVI = system: LOX IMVI
NCI-H23 = system: NCI-H23
TK-10 = system: TK-10
HOP-62 = system: HOP-62
UACC-257 = system: UACC-257
OVCAR-8 = system: OVCAR-8
SN12C = system: SN12C
EKVX = system: EKVX
U-251 = system: U-251
CCRF-CEM = system: CCRF-CEM
IGROV-1 = system: IGROV-1
A498 = system: A498

Row | Compound | GI50 (SR) | GI50 (786-0) | GI50 (SF-295) | GI50 (SNB-19) | GI50 (Hs-578T) | GI50 (NCI-H226) | GI50 (NCI-H522) | GI50 (A549) | GI50 (LOX IMVI) | GI50 (NCI-H23) | GI50 (TK-10) | GI50 (HOP-62) | GI50 (UACC-257) | GI50 (OVCAR-8) | GI50 (SN12C) | GI50 (EKVX) | GI50 (U-251) | GI50 (CCRF-CEM) | GI50 (IGROV-1) | GI50 (A498)
1 | S=C1CC(c2ccccc2)Sc2ccc(Cl)cc2N1 (centres undefined) | 20.8 µM (inactive) | 24.3 µM (inactive) | 26.9 µM (inactive) | 34 µM (inactive) | 16.4 µM (inactive) | > 100 µM (inactive) | 25.8 µM (inactive) | 34.8 µM (inactive) | > 100 µM (inactive) | 30.8 µM (inactive) | 36.8 µM (inactive) | 45.6 µM (inactive) | 18.1 µM (inactive) | 43.4 µM (inactive) | 94 µM (inactive) | 50.7 µM (inactive) | 16.5 µM (inactive) | > 100 µM (inactive) | 90.8 µM (inactive) | 
2 | CCCC(=O)NC(Nc1ccc(S(=O)(=O)Nc2cc(C)on2)cc1)(C(=O)OCC)C(F)(F)F (centres undefined) | 9.75 µM (inactive) | > 100 µM (inactive) | > 100 µM (inactive) | > 100 µM (inactive) | > 100 µM (inactive) | > 100 µM (inactive) | > 100 µM (inactive) | > 100 µM (inactive) | > 100 µM (inactive) | > 100 µM (inactive) | > 100 µM (inactive) | > 100 µM (inactive) | > 100 µM (inactive) | > 100 µM (inactive) | > 100 µM (inactive) | > 100 µM (inactive) | > 100 µM (inactive) | > 100 µM (inactive) | > 100 µM (inactive) | 
3 | O=C(c1cccs1)N(C(=S)OCc1ccccn1)c1ccccc1 | > 100 µM (inactive) | > 100 µM (inactive) | 40.4 µM (inactive) | > 100 µM (inactive) | 38.3 µM (inactive) | 32.9 µM (inactive) |  |  | 96.4 µM (inactive) | 84.9 µM (inactive) | > 100 µM (inactive) |  | > 100 µM (inactive) | 56.5 µM (inactive) | 50.7 µM (inactive) | 14.4 µM (inactive) | 92.5 µM (inactive) | 40.6 µM (inactive) | 28.8 µM (inactive) | 75.5 µM (inactive)
4 | CCOC(=O)N1CCC2(CC1)CC(=O)N(Nc1ccccc1)C2=O | 32.1 µM (inactive) | > 100 µM (inactive) | 40.3 µM (inactive) | > 100 µM (inactive) | 41.1 µM (inactive) | > 100 µM (inactive) |  | > 100 µM (inactive) | 98.4 µM (inactive) | > 100 µM (inactive) | > 100 µM (inactive) | > 100 µM (inactive) | > 100 µM (inactive) | > 100 µM (inactive) | > 100 µM (inactive) | > 100 µM (inactive) | > 100 µM (inactive) | > 100 µM (inactive) | 79.8 µM (inactive) | > 100 µM (inactive)
5 | CCOC(=O)CNC(=O)C(C)NC(=O)C(NC(=O)OCc1ccccc1)C(C)C (stereo not drawn) (Cbz-Val-Ala-Gly-OEt; configuration not given here) | > 100 µM (inactive) | > 100 µM (inactive) | > 100 µM (inactive) | > 100 µM (inactive) | > 100 µM (inactive) | > 10 µM (inactive) | 97.5 µM (inactive) | > 100 µM (inactive) |  | > 100 µM (inactive) | > 100 µM (inactive) | > 100 µM (inactive) | > 100 µM (inactive) | > 100 µM (inactive) | > 100 µM (inactive) | > 100 µM (inactive) | > 100 µM (inactive) |  | > 100 µM (inactive) | 
6 | CCOC(=O)N/N=C(\CC)OCC | > 100 µM (inactive) | > 100 µM (inactive) | > 100 µM (inactive) | > 100 µM (inactive) | > 100 µM (inactive) |  | > 100 µM (inactive) | > 100 µM (inactive) | > 100 µM (inactive) |  | > 100 µM (inactive) | > 100 µM (inactive) | > 100 µM (inactive) | > 100 µM (inactive) | > 100 µM (inactive) | > 100 µM (inactive) |  | > 100 µM (inactive) | > 100 µM (inactive) | 
7 | CC(=O)NC(NCCN)(c1ccccc1)c1ccccc1 | > 100 µM (inactive) | > 100 µM (inactive) | > 100 µM (inactive) | > 100 µM (inactive) | > 100 µM (inactive) | > 100 µM (inactive) |  | > 100 µM (inactive) | > 100 µM (inactive) | > 100 µM (inactive) | > 100 µM (inactive) | > 100 µM (inactive) | > 100 µM (inactive) | > 100 µM (inactive) | > 100 µM (inactive) | > 100 µM (inactive) | > 100 µM (inactive) | > 100 µM (inactive) |  | 59.4 µM (inactive)
8 | Clc1ccc(Cc2nc3cc(Cl)ccc3o2)cc1 | 30.7 µM (inactive) | 34.4 µM (inactive) | 22.8 µM (inactive) | 39.6 µM (inactive) | 40.8 µM (inactive) | 29.1 µM (inactive) | 21.7 µM (inactive) | 41.5 µM (inactive) | 14 µM (inactive) | 33 µM (inactive) | 52 µM (inactive) | 17.4 µM (inactive) | 33 µM (inactive) | 32.3 µM (inactive) | 40.1 µM (inactive) | 24.8 µM (inactive) | 27.7 µM (inactive) | 31.6 µM (inactive) | 23.8 µM (inactive) | 
9 | COc1cc(NCc2ccc3nc(N)nc(N)c3c2C)cc(OC)c1OC | 0.000359 µM (active) | 0.00106 µM (active) | 0.0308 µM (active) | 0.0597 µM (active) | 0.0993 µM (active) | 11.4 µM (inactive) |  | 0.0407 µM (active) | 0.025 µM (active) | 0.0453 µM (active) | 0.0105 µM (active) | 0.0286 µM (active) | 0.14 µM (active) | 0.0262 µM (active) | 0.0316 µM (active) |  | 0.0379 µM (active) | 0.025 µM (active) | 0.0316 µM (active) | 2.39 µM (inactive)
10 | NC(=O)C(N)CC12CC3CC(CC(C3)C1)C2 (centres undefined) | 17.2 µM (inactive) | 22.3 µM (inactive) | 23.3 µM (inactive) | 23.7 µM (inactive) | 19.1 µM (inactive) |  | 15 µM (inactive) | 45.6 µM (inactive) | 16 µM (inactive) | 25.4 µM (inactive) | 29.6 µM (inactive) |  | 27.9 µM (inactive) | 23.9 µM (inactive) | 21 µM (inactive) | 29.6 µM (inactive) | 17.5 µM (inactive) | 26.7 µM (inactive) | > 10 µM (inactive) | 
11 | COc1cc(O)c2c(O)c3c(=O)oc(C)cc3c(OC)c2c1 [PAEPALANTINE] | 26.1 µM (inactive) | 31.1 µM (inactive) | 27 µM (inactive) | 39.3 µM (inactive) | 29.6 µM (inactive) |  | 35.4 µM (inactive) | 25.8 µM (inactive) |  | 23.6 µM (inactive) | 29 µM (inactive) | 30.3 µM (inactive) | 31 µM (inactive) | 27.2 µM (inactive) | 24.1 µM (inactive) | 29.9 µM (inactive) | 32.5 µM (inactive) | 21.4 µM (inactive) | 27 µM (inactive) | 61.7 µM (inactive)
12 | O=C1c2cc([N+](=O)[O-])cnc2S(=O)(=O)N1c1ccc(Br)cc1 | > 100 µM (inactive) | > 100 µM (inactive) | > 100 µM (inactive) | > 100 µM (inactive) | > 100 µM (inactive) | > 100 µM (inactive) | > 100 µM (inactive) | > 100 µM (inactive) | > 100 µM (inactive) | > 100 µM (inactive) | > 100 µM (inactive) | > 100 µM (inactive) | > 100 µM (inactive) | > 100 µM (inactive) | > 100 µM (inactive) | > 100 µM (inactive) | > 100 µM (inactive) | > 100 µM (inactive) | > 100 µM (inactive) | 
13 | COc1ccc(NC(=O)c2cc(NC(=O)/C=C/c3ccccc3)c(OC)c(OC)c2)cc1 | 4.03 µM (inactive) | 11.7 µM (inactive) | 17.4 µM (inactive) | 61.1 µM (inactive) | 43.5 µM (inactive) | 6.64 µM (inactive) |  | 7.55 µM (inactive) | 4.73 µM (inactive) | > 100 µM (inactive) | > 100 µM (inactive) | 31.5 µM (inactive) | 44.1 µM (inactive) |  | 6.3 µM (inactive) | 54.2 µM (inactive) | 8.91 µM (inactive) | 7 µM (inactive) |  | 53.6 µM (inactive)
14 | CN(C(=O)C12C3C4(C(=O)O)C1(C(=O)N(C)C(C)(C)C)C1C2(C(=O)O)C3(C(=O)N(C)C(C)(C)C)C14C(=O)N(C)C(C)(C)C)C(C)(C)C (centres undefined) | > 100 µM (inactive) | > 100 µM (inactive) | > 100 µM (inactive) | > 100 µM (inactive) | > 100 µM (inactive) |  | > 100 µM (inactive) | > 100 µM (inactive) | > 100 µM (inactive) | > 100 µM (inactive) | > 100 µM (inactive) | > 100 µM (inactive) | > 100 µM (inactive) | > 100 µM (inactive) | > 100 µM (inactive) | > 100 µM (inactive) | > 100 µM (inactive) | > 100 µM (inactive) | > 100 µM (inactive) | > 100 µM (inactive)
15 | COc1ccc2c(N=[N+]=[N-])c(-c3ccccc3)c(=O)oc2c1 | 22.2 µM (inactive) | > 100 µM (inactive) | 61.9 µM (inactive) |  | > 100 µM (inactive) |  | 26.1 µM (inactive) | 48.4 µM (inactive) | 82.8 µM (inactive) | 24.5 µM (inactive) | 87.5 µM (inactive) | > 100 µM (inactive) | 29.6 µM (inactive) | 77.1 µM (inactive) | 61.1 µM (inactive) | 39.8 µM (inactive) |  | 36.1 µM (inactive) | > 100 µM (inactive) | 45.9 µM (inactive)
